33 molecules from patent EP1641803B1, “THIENOPYRIMIDINE DERIVATIVES AS POTASSIUM CHANNEL INHIBITORS” (Xention Limited, priority 2003, dated 2004) can be followed below.

SMILES strings stand for the structures. pIC50: −log10 of the molar value.

Assay [1] has as its target hKv1.5 (Homo sapiens, UniProt P22460). The experiment in a line: Kv1.5 Autopatch Electrophysiology (whole cell patch-clamp). It counts as cell-based. Conditions: compound at 1µM, room temperature (22-24°C), held at -80mV, step to 0mV for 1000ms, total charge measured. An outline of the steps:
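Whole-cell automated patch-clamp at 22-24°C, compounds tested at 1µM in external bather (KCl/K-gluconate, pH 7.4; KCl/EGTA pipette). Cells held at -80mV and stepped to 0mV for 1000ms every 5s; only cells with IK > 500 pA and Rseries ≤18 MΩ used. Read-out: total charge over the whole step.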
For orientation: In patch-clamp work, channel activity is measured electrically.

Assay [2] concerns the target T1, human Kv1.5 (Homo sapiens, UniProt P22460).
T1 construct: expressed in transfected cells
In words: Kv1.5 Rb+ Efflux Assay. Type of assay: cell-based. Conditions: inhibition of 86Rb+ efflux through Kv1.5; cells stably transfected with human Kv1.5; 10 point concentration response curves n=2; normalised to 2.5mM 4 amino-pyridine block. A digest of the protocol:
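Cells stably expressing human Kv1.5 loaded with ⁸⁶Rb⁺ ≥3 h, preincubated 10 min at room temperature with compound, then depolarised with high-KCl (145mM) buffer for 10 min; effluxed ⁸⁶Rb⁺ counted by Cerenkov emission (alternatively ⁸⁵Rb⁺ by atomic absorption). Inhibition normalised to 2.5mM 4-aminopyridine block; IC50 from 10-point curves, n=2, variable-slope sigmoidal fit.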

T1 sequence (P22460 whole entry): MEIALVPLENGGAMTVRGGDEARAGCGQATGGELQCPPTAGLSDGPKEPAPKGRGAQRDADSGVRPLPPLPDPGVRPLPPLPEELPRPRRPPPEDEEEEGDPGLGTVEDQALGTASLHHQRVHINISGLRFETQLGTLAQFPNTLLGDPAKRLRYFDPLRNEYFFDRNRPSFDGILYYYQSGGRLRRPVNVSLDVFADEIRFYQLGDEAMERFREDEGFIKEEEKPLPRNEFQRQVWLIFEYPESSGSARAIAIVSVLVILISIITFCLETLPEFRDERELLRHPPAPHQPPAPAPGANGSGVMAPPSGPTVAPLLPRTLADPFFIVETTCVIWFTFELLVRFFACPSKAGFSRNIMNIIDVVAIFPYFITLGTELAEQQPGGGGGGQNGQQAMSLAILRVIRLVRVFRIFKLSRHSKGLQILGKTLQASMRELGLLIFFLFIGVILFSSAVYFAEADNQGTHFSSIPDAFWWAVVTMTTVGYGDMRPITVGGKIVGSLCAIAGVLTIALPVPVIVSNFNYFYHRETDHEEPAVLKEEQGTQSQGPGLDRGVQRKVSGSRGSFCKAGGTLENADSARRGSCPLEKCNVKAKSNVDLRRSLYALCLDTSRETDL
Chain of hKv1.5 (P22460 whole entry): as above

For orientation: inhibition means how much of the control response was suppressed. By pIC50 is commonly meant the negative decadic logarithm of the IC50, by convention in mol/L. Read a low pIC50 as a large IC50. Turning to `O=[N+]([O-])c1ccc(CNc2ncnc3scc(-c4cccs4)c23)cc1` [Example 93, (4-Nitro-benzyl)-(5-thiophen-2-yl-thieno[2,3-d]pyrimidin-4-yl)-amine], in assay [1], the inhibition at 1 µM came out at 44%. In assay [2], this molecule had a pIC50 of under 4.52.

For `OCCC1CCN(c2nc(NCc3ccccn3)c3c(-c4ccccc4)csc3n2)CC1` [Example 206, 2-(1-{5-Phenyl-4-[(pyridin-2-ylmethyl)-amino]-thieno[2,3-d]pyrimidin-2-yl}-piperidin-4-yl)-ethanol], 1 µM produced 97.5% inhibition in assay [1]. This molecule gave a pIC50 in assay [2] of 5.47.

In turn, `CN(Cc1ccco1)c1ncnc2scc(-c3cccs3)c12` [Example 100, Furan-2-ylmethyl-methyl-(5-thiophen-2-yl-thieno[2,3-d]pyrimidin-4-yl)-amine] returned an inhibition at 1 µM in assay [1] of 19.9%. The molecule also gave a negative-log IC50 (pIC50) in assay [2] of 5.01.

The molecule `Cc1ccc(-c2csc3ncnc(NCCc4ccc5c(c4)OCCO5)c23)cc1C` [Example 132, [2-(2,3-Dihydro-benzo[1,4]dioxin-6-yl)-ethyl]-[5-(3,4-dimethyl-phenyl)-thieno[2,3-d]pyrimidin-4-yl]-amine] gave an inhibition at 1 µM in assay [1] of 92%. This molecule also had a pIC50 in assay [2] of 5.34.

`C=CCNc1ncnc2scc(-c3ccccc3)c12` [Example 87, Allyl-(5-phenyl-thieno[2,3-d]pyrimidin-4-yl)-amine]: in assay [1], the inhibition at 1 µM turned out to be 3.4%. In assay [2], this molecule showed a pIC50 of 5.29.

As for `c1ccc(-c2csc3ncnc(NCc4csc(-c5cccs5)n4)c23)cc1` [Example 161, (5-Phenyl-thieno[2,3-d]pyrimidin-4-yl)-(2-thiophen-2-yl-thiazol-4-ylmethyl)-amine], the inhibition at 1 µM in assay [1] was determined as 79.4%. In assay [2], this molecule showed a pIC50 of 4.59.

As for `c1ccc(-c2csc3ncnc(NCC4CC4)c23)cc1` [Example 84, Cyclopropylmethyl-(5-phenyl-thieno[2,3-d]pyrimidin-4-yl)-amine], testing at 1 µM in assay [1] gave an inhibition of 15.3%. In assay [2], the pIC50 was 6.10.

On to `COC(=O)c1ccc(Oc2ncnc3scc(-c4ccc(C)cc4)c23)cc1` [Example 131, 4-(5-p-Tolyl-thieno[2,3-d]pyrimidin-4-yloxy)-benzoic acid methyl ester], for which the inhibition at 1 µM in assay [1] is 29.8%. The same molecule gave a pIC50 in assay [2] of under 4.52.

As to `CN(Cc1ccco1)c1ncnc2scc(-c3ccccc3)c12` [Example 88, Furan-2-ylmethyl-methyl-(5-phenyl-thieno[2,3-d]pyrimidin-4-yl)-amine], the inhibition at 1 µM in assay [1] came to 26.4%. This molecule also showed a pIC50 in assay [2] of 5.17.

Regarding `c1ccc(CNc2ncnc3scc(-c4cccs4)c23)cc1` [Example 97, Benzyl-(5-thiophen-2-yl-thieno[2,3-d]pyrimidin-4-yl)-amine], in assay [1], the inhibition at 1 µM was found to be 43.3%. Also, the pIC50 in assay [2] was 5.19.

As to `CCOC(=O)CCNc1nc(NCc2ccccn2)c2c(-c3ccccc3)csc2n1` [Example 202, 3-{5-Phenyl-4-[(pyridin-2-ylmethyl)-amino]-thieno[2,3-d]pyrimidin-2-ylamino}-propionic acid ethyl ester], the inhibition at 1 µM in assay [1] turned out to be 98%. In assay [2], this molecule gave a negative-log IC50 (pIC50) of 5.57.

As for `c1ccc(-c2csc3ncnc(OCc4ccco4)c23)cc1` [Example 109, 4-(Furan-2-ylmethoxy)-5-phenyl-thieno[2,3-d]pyrimidine], in assay [1], the inhibition at 1 µM was 52.3%. Moreover, the pIC50 in assay [2] was 6.10.

`Fc1ccc(-c2csc3ncnc(NCc4ccccn4)c23)cc1F` [Example 333, [5-(3,4-Difluoro-phenyl)-thieno[2,3-d]pyrimidin-4-yl]-pyridin-2-ylmethyl-amine] had an inhibition at 1 µM in assay [1] of 63%. The molecule also had a pIC50 in assay [2] of 4.98.

`C=CCNc1ncnc2scc(-c3cccs3)c12` [Example 99, Allyl-(5-thiophen-2-yl-thieno[2,3-d]pyrimidin-4-yl)-amine] registered an inhibition at 1 µM in assay [1] of 17.5%. The molecule also gave a pIC50 in assay [2] of 5.12.

For the molecule `FC1(F)Oc2ccc(-c3csc4ncnc(NCc5ccccn5)c34)cc2O1` [Example 326, [5-(2,2-Difluoro-benzo[1,3]dioxol-5-yl)-thieno[2,3-d]pyrimidin-4-yl]-pyridin-2-ylmethyl-amine], the inhibition at 1 µM in assay [1] turned out to be 89%. The same molecule had a negative logarithm of the IC50 (pIC50) in assay [2] of 4.98.

In the case of `OCCc1nc(NCc2ccco2)c2c(-c3ccccc3)csc2n1` [Example 251, 2-{4-[(Furan-2-ylmethyl)-amino]-5-phenyl-thieno[2,3-d]pyrimidin-2-yl}-ethanol], in assay [1], at 1 µM the inhibition was 98%. This molecule gave a negative-log IC50 (pIC50) in assay [2] of 7.10.

For `CN(C)CCOc1nc(NCc2ccccn2)c2c(-c3ccccc3)csc2n1` [Example 211, [2-(2-Dimethylamino-ethoxy)-5-phenyl-thieno[2,3-d]pyrimidin-4-yl]-pyridin-2-ylmethyl-amine], in assay [1], the inhibition at 1 µM is 89%. For the same molecule, in assay [2], the pIC50 is 5.27.

In assay [1], `CCc1nc(NCc2ccccn2)c2c(-c3ccccc3)csc2n1` [Example 152, (2-Ethyl-5-phenyl-thieno[2,3-d]pyrimidin-4-yl)-pyridin-2-ylmethyl-amine] had an inhibition at 1 µM of 98.7%. The molecule also had a pIC50 in assay [2] of 6.41.

Turning to `Cc1ccccc1-c1csc2ncnc(NCc3ccccn3)c12` [Example 142, Pyridin-2-ylmethyl-(5-o-tolyl-thieno[2,3-d]pyrimidin-4-yl)-amine], the inhibition at 1 µM in assay [1] was 49.7%. The molecule also gave a negative logarithm of the IC50 (pIC50) in assay [2] of 5.89.

As to `Cc1sc2ncnc(NCc3ccccn3)c2c1-c1ccccc1` [Example 157, (6-Methyl-5-phenyl-thieno[2,3-d]pyrimidin-4-yl)-pyridin-2-ylmethyl-amine], in assay [1], at 1 µM the inhibition was 88%. Further, the pIC50 in assay [2] was 6.62.

In assay [1], `Cn1cccc1CNc1ncnc2scc(-c3ccccc3)c12` [Example 110, (1-Methyl-1H-pyrrol-2-ylmethyl)-(5-phenyl-thieno[2,3-d]pyrimidin-4-yl)-amine] displayed an inhibition at 1 µM of 14.2%. Further, the pIC50 in assay [2] was 5.41.

`OCC(CO)Nc1nc(NCc2ccccn2)c2c(-c3ccccc3)csc2n1` [Example 210, 2-{5-Phenyl-4-[(pyridin-2-ylmethyl)-amino]-thieno[2,3-d]pyrimidin-2-ylamino}-propane-1,3-diol] gave an inhibition at 1 µM in assay [1] of 95.6%. The molecule further had a pIC50 in assay [2] of 6.13.

The molecule `c1ccc(CNc2ncnc3scc(-c4ccc(N5CCOCC5)cc4)c23)nc1` [Example 332, [5-(4-Morpholin-4-yl-phenyl)-thieno[2,3-d]pyrimidin-4-yl]-pyridin-2-ylmethyl-amine] had an inhibition at 1 µM in assay [1] of 73%. In addition, in assay [2], the pIC50 was 4.32.

With `CCOC(=O)Cc1nc(NCc2ccco2)c2c(-c3ccccc3)csc2n1` [Example 238, {4-[(Furan-2-ylmethyl)-amino]-5-phenyl-thieno[2,3-d]pyrimidin-2-yl}-acetic acid ethyl ester], 1 µM produced 96% inhibition in assay [1]. In addition, the pIC50 in assay [2] is 5.48.

`OCCN(CCO)c1nc(NCc2ccccn2)c2c(-c3ccccc3)csc2n1` [Example 208, 2-((2-Hydroxy-ethyl)-{5-phenyl-4-[(pyridin-2-ylmethyl)-amino]-thieno[2,3-d]pyrimidin-2-yl}-amino)-ethanol]: in assay [1], 1 µM produced 96.6% inhibition. In assay [2], this molecule gave a negative-log IC50 (pIC50) of 6.48.

`Cc1ccc(-c2csc3ncnc(Oc4ccc5ccccc5c4)c23)cc1` [Example 129, 4-(Naphthalen-2-yloxy)-5-p-tolyl-thieno[2,3-d]pyrimidine] gave an inhibition at 1 µM in assay [1] of 47.4%. Also, the pIC50 in assay [2] was under 4.52.

The molecule `COC(=O)C1CCN(c2nc(NCc3ccccn3)c3c(-c4ccc(F)cc4)csc3n2)CC1` [Example 201, 1-{5-(4-Fluorophenyl)-4-[(pyridin-2-ylmethyl)-amino]-thieno[2,3-d]pyrimidin-2-yl}-piperidine-4-carboxylic acid methyl ester] showed an inhibition at 1 µM in assay [1] of 98.2%. Moreover, the negative-log IC50 (pIC50) in assay [2] was 4.80.

The molecule `c1ccc(CCNc2ncnc3scc(-c4cccs4)c23)cc1` [Example 163, Phenethyl-(5-thiophen-2-yl-thieno[2,3-d]pyrimidin-4-yl)-amine] came in with an inhibition at 1 µM in assay [1] of 70.8%. Further, the pIC50 in assay [2] was 4.84.

As for `c1ccc(CNc2ncnc3scc(C4CCCCC4)c23)nc1` [Example 146, (5-Cyclohexyl-thieno[2,3-d]pyrimidin-4-yl)-pyridin-2-ylmethyl-amine], at 1 µM the inhibition in assay [1] was 81%. Moreover, in assay [2], the pIC50 was 5.77.

Regarding `Cc1ccccc1-c1csc2ncnc(NCc3ccco3)c12` [Example 143, Furan-2-ylmethyl-(5-o-tolyl-thieno[2,3-d]pyrimidin-4-yl)-amine], in assay [1], the inhibition at 1 µM was 63%. Besides, the negative-log IC50 (pIC50) in assay [2] was 5.88.

In assay [1], `c1ccc(-c2csc3nc(NCc4ccco4)nc(NCc4ccco4)c23)cc1` [Example 193, N,N'-Bis(2-furylmethyl)-5-phenylthieno[2,3-d]pyrimidine-2,4-diamine] had an inhibition at 1 µM of 89.2%. In addition, the pIC50 in assay [2] was 5.60.

`CCc1nc(NCc2ccco2)c2c(-c3ccccc3)csc2n1` [Example 153, (2-Ethyl-5-phenyl-thieno[2,3-d]pyrimidin-4-yl)-furan-2-ylmethyl-amine] gave an inhibition at 1 µM in assay [1] of 96.8%. The molecule further showed a pIC50 in assay [2] of 5.44.

Regarding `CN(C)c1nc(NCc2ccccn2)c2c(-c3ccc(F)cc3)csc2n1` [Example 200, 5-(4-Fluorophenyl)-N^2,N^2-dimethyl-N^4-pyridin-2-ylmethyl-thieno[2,3-d]pyrimidine-2,4-diamine], the inhibition at 1 µM in assay [1] was determined as 99.3%. This molecule gave a pIC50 in assay [2] of 4.14.
